{"source": "patent US5405866A", "about": "“Multidrug resistance modifying dithianes” (Hoffmann-La Roche Inc., priority 1991, dated 1995)", "key": {"[1]": {"tested_on": "multiple resistance to cytostatics (multidrug resistance)", "conditions": "literature; cited from earlier work"}, "[2]": {"conditions": "background statement, no test given; cited from earlier work"}, "[3]": {"tested_on": "multiple resistance to cytostatics (multidrug resistance)", "experiment": "elimination of multiple resistance to cytostatics (literature and background statements)", "conditions": "compared with compounds of formula I"}, "[4]": {"experiment": "in vivo", "conditions": "po, mouse, preliminary, read-out: Toxicity (LD50)"}, "[5]": {"tested_on": "KB-8-5 cells", "experiment": "resistance modification index (RMI) test with vincristine in multidrug-resistant cells (formazan colorimetric measurement)", "assay_type": "cell-based, human", "conditions": "RMI at 0.1·IC50 of the substance; RMI = IC50 vincristine without / with test substance; n = 2 (A-E) or 4 (verapamil)", "text": "The modifying activity of multiple resistance to cytostatics of the compounds of formula I, of rac-N-(3,4-dimethoxyphenethyl)-2-(3,4-dimethoxyphenyl)-β,N-dimethyl-m-dithiane-2-propanamine and of usual reference substances was investigated as follows:\n(§1) KB-8-5 cells, a human cell line with multiple resistance to cytostatics, and KB-3-1 cells, a correspondingly sensitive cell line [Cell. Mol. Genet. 11, 117-126, (1985) and Science 232, 643-645, (1986)], were cultivated in suitable media [Cancer Res. 94, 267-275, (1984), Exp. Hematol. 12, 559-567, (1984), Eliason, Ramuz & Kaufmann in Int. J. Cancer 46, 113-117, (1990)].\n(§2) The testing and the determination of cytotoxicity are based on the ability of living cells to reduce 3-(4,5-dimethylthiazol-2-yl)-2,5-diphenyltetrazolium bromide to the corresponding blue formazan (colorimetric measurement) [J. Immunol. Methods 65, 55-63, (1985)]. The cells were incubated for 2 days in separate containers. The compounds selected for the biological investigation were added to the cell cultures in such a manner that the serial concentrations 10^-8 M, 10^-7 M, 10^-6 M, 10^-5 M and 10^-4 M were achieved. Vincristine in 4 dilution series (3·10^-9 M, 10^-8 M, 3·10^-8 M and 10^-7 M for KB-8-5 cells and 30 times less for the KB-3-1 cells) was added thereto. After incubating for 5 days the cell count was measured at 540 nm using the formazan color reaction. The evaluation was carried out by calculating a resistance modification index, RMI, which is the ratio between the IC50 value of vincristine in the absence of a test substance and the IC50 value of vincristine in the presence of a test substance. [formula]\n(RMI0.1 ≡RMI at 0.1·IC50 of the substance)."}, "[6]": {"tested_on": "KB-8-5 cells", "experiment": "cytotoxicity (IC50) of the test substance, MTT/formazan color reaction", "assay_type": "cell-based", "conditions": "Homo sapiens, 120 h", "text": "as §1\nas §2, with “The biological test is based on the ability of the test substance to lower the concentration of a standard cytostatic which is required to kill 50% of the cells. The testing” for “The testing”\nIn order to compare all activities of compounds from different classes, a RMI0.1 is defined: this is the RMI value of a substance which is obtained with the ten-fold lower concentration than the IC50 value. (RMI0.1 ≡RMI at 0.1·IC50 of the substance). […] The preliminary toxicological data (LD50, mouse) after oral administration of the test compound are also given."}}, "note": "Read-outs that look alike come from different tables or passages of the source."}
{"smiles": "COc1ccc(CCN(C)CCCC2(c3ccc4ccccc4c3)SCCCS2)cc1OC", "note": "(racemic) [rac-N-(3,4-dimethoxyphenethyl)-N-methyl-2-(2-naphthyl)-m-dithiane-2-propanamine]", "values": [{"measurement": "activity in eliminating multiple resistance", "setting": "[1]", "result": "certain activity in partially or completely eliminating multiple resistance"}, {"measurement": "toxicity", "setting": "[2]", "result": "relatively toxic"}, {"measurement": "activity vis-a-vis the novel compounds of formula I", "setting": "[3]", "result": "clearly lower activity"}]}
{"smiles": "C=C[C@H]1C[N@@]2CC[C@H]1C[C@@H]2[C@@H](O)c1ccnc2ccc(OC)cc12", "note": "[quinidine]", "values": [{"measurement": "activity in eliminating multiple resistance", "setting": "[1]", "result": "certain activity in partially or completely eliminating multiple resistance"}]}
{"smiles": "COc1ccc(CCN(C)CC(C)CC2(c3ccc(Cl)cc3)SCCCS2)cc1OC.Cl", "note": "(racemic) [A, rac-2-(4-Chlorophenyl)-N-(3,4-dimethoxyphenethyl)-β,N-dimethyl-m-dithiane-2-propanamine hydrochloride]", "values": [{"measurement": "LD50", "setting": "[4]", "result": "1250 to 2500", "unit": "mg/kg"}, {"measurement": "Vincristine RMI0.1", "setting": "[5]", "result": 216}, {"measurement": "IC50", "setting": "[6]; read-out: IC50", "result": 14, "unit": "µM"}]}
{"smiles": "COc1ccc(C2(CN(C)CC(C)CC3(c4cc(OC)c(OC)c(OC)c4)SCCCS3)CCC2)cc1OC.Cl", "note": "(racemic) [C, rac-N-[[1-(3,4-dimethoxyphenyl)cyclobutyl]methyl]-β,N-dimethyl-2-(3,4,5-trimethoxyphenyl)-m-dithiane-2-propanamine hydrochloride]", "values": [{"measurement": "LD50", "setting": "[4]", "result": "1000 to 2000", "unit": "mg/kg"}, {"measurement": "Vincristine RMI0.1", "setting": "[5]", "result": 224}, {"measurement": "IC50", "setting": "[6]; read-out: IC50", "result": 21, "unit": "µM"}]}
{"smiles": "COc1ccc(C2(CN(C)CC(C)CC3(c4ccc(OC)c(OC)c4)SCCCS3)CCC2)cc1OC.Cl", "note": "(racemic) [D, rac-2-(3,4-dimethoxyphenyl)-N-[[1-(3,4-dimethoxyphenyl)cyclobutyl]methyl]-β,N-dimethyl-m-dithiane-2-propanamine hydrochloride]", "values": [{"measurement": "LD50", "setting": "[4]", "result": "1000 to 2000", "unit": "mg/kg"}, {"measurement": "Vincristine RMI0.1", "setting": "[5]", "result": 163}, {"measurement": "IC50", "setting": "[6]; read-out: IC50", "result": 21, "unit": "µM"}]}
{"smiles": "COc1ccc(CCN(C)CC(C)CC2(c3ccc(C)cc3)SCCCS2)cc1OC.Cl", "note": "(racemic) [B, rac-N-(3,4-dimethoxyphenethyl)-β,N-dimethyl-2-(4-tolyl)-m-dithiane-2-propanamine hydrochloride]", "values": [{"measurement": "LD50", "setting": "[4]", "result": "625 to 1250", "unit": "mg/kg"}, {"measurement": "Vincristine RMI0.1", "setting": "[5]", "result": 159}, {"measurement": "IC50", "setting": "[6]; read-out: IC50", "result": 14, "unit": "µM"}]}
{"smiles": "COc1ccc(CCN(C)CCCC(C#N)(c2ccc(OC)c(OC)c2)C(C)C)cc1OC", "note": "(stereo not shown) [verapamil]", "values": [{"measurement": "activity in eliminating multiple resistance", "setting": "[1]", "result": "certain activity in partially or completely eliminating multiple resistance"}]}
{"smiles": "COc1ccc(CCN(C)CCC[C@@](C#N)(c2ccc(OC)c(OC)c2)C(C)C)cc1OC", "note": "[(-)Verapamil, reference compound]", "values": [{"measurement": "Vincristine RMI0.1", "setting": "[5]", "result": 47}, {"measurement": "IC50", "setting": "[6]", "result": 72, "unit": "µM"}]}
{"smiles": "CN1CCN(CCCN2c3ccccc3Sc3ccc(C(F)(F)F)cc32)CC1", "note": "[trifluoperazine]", "values": [{"measurement": "activity in eliminating multiple resistance", "setting": "[1]", "result": "certain activity in partially or completely eliminating multiple resistance"}]}
{"smiles": "COc1ccc(CCN(C)CCC[C@](C#N)(c2ccc(OC)c(OC)c2)C(C)C)cc1OC", "note": "[(+)Verapamil, reference compound]", "values": [{"measurement": "Vincristine RMI0.1", "setting": "[5]", "result": 12}, {"measurement": "IC50", "setting": "[6]", "result": 62, "unit": "µM"}]}
{"smiles": "COc1ccc(C2(CC(C)CN(C)CCc3ccc(Cl)cc3)SCCCS2)cc1OC.Cl", "note": "(racemic) [E, rac-N-(4-chlorophenethyl)-2-(3,4-dimethoxyphenyl)-β,N-dimethyl-m-dithiane-2-propanamine hydrochloride]", "values": [{"measurement": "LD50", "setting": "[4]", "result": "2500 to 5000", "unit": "mg/kg"}, {"measurement": "Vincristine RMI0.1", "setting": "[5]", "result": 24}, {"measurement": "IC50", "setting": "[6]; read-out: IC50", "result": 7.7, "unit": "µM"}]}
